Assay results: patent US11737999B2, “Amino acid compositions and methods for the treatment of post-acute sequelae of COVID-19” (AXCELLA HEALTH INC., priority 2021, dated 2023)

What was measured:
IL-6 [1] = test: IL-6 cytokine secretion in primary human hepatic stellate cells stimulated with TNFα; format: cell-based; conditions: for Fold Change IL-6 Secretion Normalized Per Cell: Isoleucine 66 μM (plasma level, reference)
MCP1/CCL2 = MCP1/CCL2 secretion by ELISA in primary human hepatocytes with FFA + TNFα; format: cell-based
IL-6 [2] = test: LPS-induced IL-6 secretion in primary human monocyte-derived macrophages; conditions: for IL-6 Measurements, Mean: LPS, baseline subtracted values
MCP-1 = MCP-1 chemokine secretion in primary human hepatic stellate cells stimulated with TNFα; format: cell-based
Col1a1 = Col1a1 gene expression (RT-qPCR) in primary human hepatic stellate cells stimulated with TGFβ1; format: cell-based; conditions: for Col1a1 Fold Expression Relative to Control, Mean: single amino acid
TNF-α = test: LPS-induced TNF-α secretion in primary human monocyte-derived macrophages; conditions: for TNF-α Measurements Mean (baseline subtracted): 0.15 ng/mL LPS
Procollagen Iα1 = Procollagen Iα1 secretion (ELISA) in primary human hepatic stellate cells stimulated with TGFβ1; format: cell-based; conditions: for Procollagen lα1 Secretion (Fold Change of 1X), Mean: first donor; for Procollagen lα1 Secretion (Fold Change of 1X), Mean / Procollagen Iα1 Secretion, Mean: single amino acid
[3] = Donor 1, Conc. 66 μM (baseline)
[4] = hepatic stellate cells, three donors

## CC[C@H](C)[C@H](N)C(=O)O [Isoleucine, L-Isoleucine]
IL-6 [1]; donor 1
  Fold Change IL-6 Secretion Normalized Per Cell: 1.0000 fold change
IL-6 [1]; donor 2
  Fold Change IL-6 Secretion Normalized Per Cell: 1.0000 fold change
IL-6 [1]; hepatic stellate cells, two donors
  IL-6 secretion (summary in words): no significant effect on IL-6 secretion
MCP1/CCL2; Donor 1, Conc. 66 μM
  MCP1 expression relative to Control, Mean: −1.2E−15
MCP1/CCL2; Donor 1, Conc. 1328 μM
  MCP1 expression relative to Control, Mean: −0.3073
MCP1/CCL2; Donor 1, Conc. 3320 μM
  MCP1 expression relative to Control, Mean: −2.417
MCP1/CCL2; Donor 1, Conc. 6639 μM
  MCP1 expression relative to Control, Mean: −0.205
MCP1/CCL2; Donor 2, Conc. 66 μM
  MCP1 expression relative to Control, Mean: 0
MCP1/CCL2; Donor 2, Conc. 1328 μM
  MCP1 expression relative to Control, Mean: 26.62
MCP1/CCL2; Donor 2, Conc. 3320 μM
  MCP1 expression relative to Control, Mean: −5.645
MCP1/CCL2; Donor 2, Conc. 6639 μM
  MCP1 expression relative to Control, Mean: 18.62
MCP1/CCL2; primary human hepatocytes, two healthy donors
  MCP1/CCL2 secretion (summary in words): did not have an effect on MCP1/CCL2 secretion
IL-6 [2]; [3]
  IL-6 Measurements, Mean: 0
IL-6 [2]; Donor 2, Conc. 1328 μM
  IL-6 Measurements, Mean: −2.318
IL-6 [2]; Donor 2, Conc. 3320 μM
  IL-6 Measurements, Mean: 2.305
IL-6 [2]; Donor 2, Conc. 6639 μM
  IL-6 Measurements, Mean: −1.774
IL-6 [2]; Donor 3, Conc. 3320 μM, 0.15 ng/mL LPS
  IL-6 Measurements Mean (baseline subtracted): 0
MCP-1; donor 3, Conc. 66 μM
  Fold Change MCP1 Secretion Normalized Per Cell, Mean: 1.0000 Fold Change
MCP-1; donor 4, Isoleucine 66 μM (plasma level, reference)
  Fold Change MCP1 Secretion Normalized Per Cell: 1.0000 fold change
Col1a1; first donor, 3320 μM
  Col1a1 Fold Expression Relative to Control, Mean: 1.10 fold
Col1a1; [4]
  Col1a1 gene expression (summary in words): did not significantly change Col1a1 gene expression in any donor
Col1a1; second donor (Table 27), 66 μM (baseline)
  Col1a1 Fold Expression Relative to Control, Mean: 1.00 fold
Col1a1; second donor (Table 27), 1328 μM
  Col1a1 Fold Expression Relative to Control, Mean: 0.97 fold
Col1a1; second donor (Table 27), 3320 μM
  Col1a1 Fold Expression Relative to Control, Mean: 0.99 fold
Col1a1; second donor (Table 27), 6639 μM
  Col1a1 Fold Expression Relative to Control, Mean: 1.03 fold
Col1a1; second donor (Table 29), 1328 μM
  Col1a1 Fold Expression Relative to Control, Mean: 0.94 fold
Col1a1; second donor (Table 29), 3320 μM
  Col1a1 Fold Expression Relative to Control, Mean: 0.94 fold
Col1a1; second donor (Table 29), 6639 μM
  Col1a1 Fold Expression Relative to Control, Mean: 1.03 fold
TNF-α; [3]
  TNF-α Measurements Mean (baseline subtracted): 0
TNF-α; Donor 1, Conc. 1328 μM
  TNF-α Measurements Mean (baseline subtracted): −42.68
TNF-α; Donor 1, Conc. 3320 μM
  TNF-α Measurements Mean (baseline subtracted): −96.3
TNF-α; Donor 1, Conc. 6639 μM
  TNF-α Measurements Mean (baseline subtracted): −40.95
TNF-α; Donor 2
  LPS-induced TNF-α secretion (summary in words): increased TNF-α secretion
TNF-α; Donor 2, Conc. 66 μM (baseline)
  TNF-α Measurements Mean (baseline subtracted): 4.74E−15
TNF-α; Donor 2, Conc. 1328 μM
  TNF-α Measurements Mean (baseline subtracted): 2.919
TNF-α; Donor 2, Conc. 3320 μM
  TNF-α Measurements Mean (baseline subtracted): 10.26
TNF-α; Donor 2, Conc. 6639 μM
  TNF-α Measurements Mean (baseline subtracted): 19.26
TNF-α; Donor 3, Conc. 66 μM (baseline)
  TNF-α Measurements Mean (baseline subtracted): −2.4E−15
TNF-α; Donor 3, Conc. 1328 μM
  TNF-α Measurements Mean (baseline subtracted): −6.23
TNF-α; Donor 3, Conc. 3320 μM
  TNF-α Measurements Mean (baseline subtracted): 3.309
TNF-α; Donor 3, Conc. 6639 μM
  TNF-α Measurements Mean (baseline subtracted): −1.66
Procollagen Iα1; 1328 μM
  Procollagen lα1 Secretion (Fold Change of 1X), Mean: 0.9229 fold
Procollagen Iα1; 3320 μM
  Procollagen lα1 Secretion (Fold Change of 1X), Mean: 1.1366 fold
Procollagen Iα1; 6639 μM
  Procollagen lα1 Secretion (Fold Change of 1X), Mean: 1.2144 fold
Procollagen Iα1; [4]
  procollagen Iα1 secretion (summary in words): significantly increased procollagen Iα1 secretion in two of three donors
Procollagen Iα1; second donor, Conc. 66 μM (baseline)
  Procollagen Iα1 Secretion, Mean: 1.0000 Fold Change of 1×
Procollagen Iα1; second donor, Conc. 1328 μM
  Procollagen Iα1 Secretion, Mean: 1.4811 Fold Change of 1×
Procollagen Iα1; second donor, Conc. 3320 μM
  Procollagen Iα1 Secretion, Mean: 1.4940 Fold Change of 1×
Procollagen Iα1; second donor, Conc. 6639 μM
  Procollagen Iα1 Secretion, Mean: 1.5423 Fold Change of 1×
Procollagen Iα1; third donor, Conc. 66 μM (baseline)
  Procollagen Iα1 Secretion, Mean: 1.0000 Fold Change of 1×
Procollagen Iα1; third donor, Conc. 1328 μM
  Procollagen Iα1 Secretion, Mean: 1.2687 Fold Change of 1×
Procollagen Iα1; third donor, Conc. 3320 μM
  Procollagen Iα1 Secretion, Mean: 1.2703 Fold Change of 1×
Procollagen Iα1; third donor, Conc. 6639 μM
  Procollagen Iα1 Secretion, Mean: 1.4465 Fold Change of 1×
